Common to all, as to assay type: functional, Homo sapiens
What all share (conditions): Homo sapiens, read-out: Cell Viability; for viability at 10 µM: Concentration 10 uM; for viability at 1 µM: Concentration 1 uM

The test system of experiment [1] is Colon cancer organoid. Kind of experiment: Targeting of F14 CAF-induced therapy resistance in O23 CRC organoid-stroma co-culture. Cell viability is reported with SN-38.
Experiment [2] has as its system Colon cancer organoid. As to the kind of experiment: Targeting of F14 CAF-induced therapy resistance in O23 CRC organoid-stroma co-culture. Cell viability is reported with Gefitinib.
The subject of experiment [3] is Colon cancer organoid. As to the kind of experiment: Targeting of F14 CAF-induced therapy resistance in O14 CRC organoid-stroma co-culture. Cell viability is reported with Gefitinib.
The test system of experiment [4] is Colon cancer organoid. As to the kind of experiment: Targeting of F14 CAF-induced therapy resistance in O23 CRC organoid-stroma co-culture. Cell viability is reported without Gefitinib.
Experiment [5] has as its system Colon cancer organoid. Kind of experiment: Targeting of F14 CAF-induced therapy resistance in O14 CRC organoid-stroma co-culture. Cell viability is reported without Gefitinib.

This passage reports viability results from ChEMBL document CHEMBL5608113, “Targeting of CAF-induced therapy resistance in CRC organoid-stroma co-cultures” (2024).

Consider `CCN(C(=O)CO)[C@H]1CN(/C(=N\C#N)Nc2cccc(OC(F)F)c2)N=C1c1ccc(Cl)c(Cl)c1`, for which the viability at 10 µM with Colon cancer organoid [1] is 115%; in the experiment with Colon cancer organoid [2] it was 54.9%; in the experiment with Colon cancer organoid [3] it was 62.2%; in the experiment on Colon cancer organoid [4], 84%; in the experiment on Colon cancer organoid [5], 125%.

As for `CCCc1cc(C)[nH]c(=O)c1CNC(=O)c1cc(-c2ccnc(N3CCN(C)CC3)c2)cc2c1cnn2C(C)C`, the viability at 10 µM in the experiment with Colon cancer organoid [1] amounted to 94.5%; with Colon cancer organoid [2], 74.3%; in the experiment on Colon cancer organoid [3], 63.9%; in the experiment with Colon cancer organoid [4] it was 119%; in the experiment on Colon cancer organoid [5] it was 73%.

For `CN(C(=O)c1ccccc1)c1cc(N(C)c2ccc3c(c2)CCc2ccc(C(=O)NCCN4CCOCC4)cc2C3=O)ccc1F` [FM-743], the viability at 10 µM with Colon cancer organoid [1] worked out at 59.3%; in the experiment with Colon cancer organoid [2] it was 83.7%; in the experiment on Colon cancer organoid [3], 36.5%; in the experiment with Colon cancer organoid [4] it was 141%; in the experiment on Colon cancer organoid [5], 142%.

`COCCN1CCC(c2cc(CN(C)C(=O)c3cccc(Oc4ccccc4)c3)ccn2)CC1`: the viability at 10 µM with Colon cancer organoid [1] came to 34%; in the experiment on Colon cancer organoid [2] it was 27.5%; in the experiment on Colon cancer organoid [3], 65.6%; in the experiment with Colon cancer organoid [4] it was 46.6%; in the experiment with Colon cancer organoid [5], 67.2%.

Take `COc1cccc2c1c(O)c(C(=O)N(C)c1ccc(C(F)(F)F)cc1)c(=O)n2C` [TASQUINIMOD]: the viability at 10 µM in the experiment with Colon cancer organoid [1] stood at 83%; in the experiment on Colon cancer organoid [2], 47.3%; in the experiment with Colon cancer organoid [3], 61.6%; with Colon cancer organoid [4], 99.2%; with Colon cancer organoid [5], 80.1%.

Regarding `CN(C)CCCOc1ccc(-c2cc(NCCCn3cccn3)nc(S(C)(=O)=O)n2)cc1`, the viability at 10 µM worked out at 1.65% in the experiment with Colon cancer organoid [1]; 1.76% with Colon cancer organoid [2]; 65.9% in the experiment with Colon cancer organoid [3]; 0.601% in the experiment on Colon cancer organoid [4]; 100% in the experiment with Colon cancer organoid [5].

`C=CC(=O)Nc1ccc2[nH]c(=O)n(C3CCN(Cc4ccc(-c5ccc6c(c5)NC(=O)CO6)cc4)CC3)c2c1` [RL2578]: the viability at 10 µM in the experiment with Colon cancer organoid [1] came out at 65.6%; in the experiment with Colon cancer organoid [2], 55.4%; in the experiment on Colon cancer organoid [3] it was 33.2%; in the experiment with Colon cancer organoid [4], 106%; with Colon cancer organoid [5], 101%.

As for `CS(=O)(=O)c1cc(C2(NC(=O)c3cncc4c3cnn4-c3ccc(F)cc3)CC2)ccn1` [BI 639667], the viability at 1 µM in the experiment on Colon cancer organoid [1] was 94.7%; with Colon cancer organoid [2], 107%; in the experiment on Colon cancer organoid [3], 39%; in the experiment on Colon cancer organoid [4], 135%; with Colon cancer organoid [5] it was 126%.

Take `COc1ccccc1C(=O)Nc1cc2c(cc1N1CCCC1)n(C)c(=O)n2C`: the viability at 10 µM in the experiment on Colon cancer organoid [1] came out at 84.2%; with Colon cancer organoid [2] it was 79%; with Colon cancer organoid [3], 46.1%; in the experiment on Colon cancer organoid [4], 115%; in the experiment on Colon cancer organoid [5], 114%.

As for `Cn1cc(-c2ccc3occ(-c4cccc(-c5ccncc5)c4)c3n2)cn1`, the viability at 10 µM in the experiment on Colon cancer organoid [1] was 65.6%; with Colon cancer organoid [2] it was 87.7%; in the experiment on Colon cancer organoid [3], 56.4%; with Colon cancer organoid [4] it was 114%; in the experiment with Colon cancer organoid [5] it was 112%.

With `C[C@H]1CC(=O)Nc2cc(C(=O)NCCC3CC3)ccc2N1C(=O)N1CC2CC2C1` (stereo not given in full), the viability at 10 µM in the experiment on Colon cancer organoid [1] was determined as 160%; in the experiment with Colon cancer organoid [2], 142%; in the experiment with Colon cancer organoid [3] it was 59.8%; in the experiment on Colon cancer organoid [4], 196%; in the experiment with Colon cancer organoid [5], 108%.

As to `COCCOc1nc(-c2ccc(Cl)nc2)nc2c1CN(C(=O)c1ncn3ccccc13)CC2` [THPP-1], the viability at 1 µM in the experiment on Colon cancer organoid [1] was 58.4%; in the experiment with Colon cancer organoid [2] it was 47.7%; in the experiment with Colon cancer organoid [3], 37.5%; with Colon cancer organoid [4], 141%; in the experiment with Colon cancer organoid [5] it was 100%.

With `CN(C)C(=O)N1CC[C@H](NC2=Nc3cc(F)ccc3N(CC(F)F)c3ccc(Cl)cc32)C1`, the viability at 10 µM with Colon cancer organoid [1] worked out at 75.2%; in the experiment with Colon cancer organoid [2], 43.7%; in the experiment on Colon cancer organoid [3] it was 61.6%; with Colon cancer organoid [4], 102%; in the experiment with Colon cancer organoid [5] it was 87.4%.

For the compound `COc1ccc(Cn2ccc3ccc(C(=O)NO)cc32)cc1`, the viability at 10 µM in the experiment on Colon cancer organoid [1] was found to be 94.6%; in the experiment with Colon cancer organoid [2] it was 89.4%; in the experiment with Colon cancer organoid [3], 52.8%; with Colon cancer organoid [4] it was 126%; in the experiment with Colon cancer organoid [5] it was 75.4%.

In the case of `Cc1ccc2nc(CNCCCOc3ccccc3)cc(O)c2c1` [UCSF924], the viability at 10 µM in the experiment on Colon cancer organoid [1] is 63.9%; with Colon cancer organoid [2] it was 48.9%; with Colon cancer organoid [3], 36.6%; with Colon cancer organoid [4], 119%; in the experiment with Colon cancer organoid [5], 105%.

On to `COc1ccc2cc(OCC3(C(=O)O)CN(C(=O)c4ccc(F)cc4)C3)ccc2c1` [PF-04418948], for which the viability at 1 µM in the experiment with Colon cancer organoid [1] came out at 81.3%; with Colon cancer organoid [2], 40.3%; in the experiment with Colon cancer organoid [3], 43%; in the experiment with Colon cancer organoid [4], 142%; in the experiment on Colon cancer organoid [5], 141%.

Turning to `CN(C)C(=O)Cn1cc(-c2nc(C3(c4ccc(-c5cnc(N)nc5)cc4)CC3)no2)cn1` [BI 0153], the viability at 10 µM in the experiment on Colon cancer organoid [1] came to 98.3%; in the experiment on Colon cancer organoid [2] it was 48.9%; with Colon cancer organoid [3], 82.1%; in the experiment with Colon cancer organoid [4], 171%; in the experiment with Colon cancer organoid [5], 110%.

On to `CCCCN(CCCC)C(=O)CN1C[C@H](c2cc(OC)c3c(c2)OCO3)[C@@H](C(=O)O)[C@@H]1CC(C)(C)CCC`, for which the viability at 1 µM with Colon cancer organoid [1] was 115%; in the experiment on Colon cancer organoid [2], 50%; with Colon cancer organoid [3], 44.1%; with Colon cancer organoid [4] it was 145%; in the experiment on Colon cancer organoid [5], 125%.

Regarding `CC(=O)NCC(=O)N1[C@@H]2CC[C@H]1c1ccc(Nc3ncc(C(F)(F)F)c(NC4CCC4)n3)cc12` [PF-03814735], the viability at 10 µM in the experiment on Colon cancer organoid [1] turned out to be 48.4%; in the experiment with Colon cancer organoid [2] it was 25.7%; in the experiment with Colon cancer organoid [3], 4.93%; in the experiment on Colon cancer organoid [4] it was 33.7%; with Colon cancer organoid [5], 14.8%.

As to `Cc1nc(Cc2cccc(C(F)(F)F)c2)sc1-c1ccc(C(N)=O)nc1` [TP-024n], the viability at 1 µM in the experiment with Colon cancer organoid [1] came out at 93.5%; in the experiment on Colon cancer organoid [2], 43.7%; in the experiment on Colon cancer organoid [3], 81.1%; with Colon cancer organoid [4], 178%; in the experiment with Colon cancer organoid [5], 123%.

As to `Clc1cccc(-c2nnnn2Cc2cccnc2)c1Cl`, the viability at 10 µM was 77.1% with Colon cancer organoid [1]; 47.8% in the experiment on Colon cancer organoid [2]; 60.2% in the experiment with Colon cancer organoid [3]; 106% in the experiment with Colon cancer organoid [4]; 127% in the experiment on Colon cancer organoid [5].

Consider `CN1CCN(C(=O)C(C)(C)c2ccc(C(=O)Nc3cn4cc(-c5ccncc5)ccc4n3)cc2)CC1` [T3-CLK], for which the viability at 10 µM with Colon cancer organoid [1] stood at 18.9%; in the experiment on Colon cancer organoid [2] it was 12.1%; in the experiment with Colon cancer organoid [3], 7.96%; with Colon cancer organoid [4], 27.9%; in the experiment with Colon cancer organoid [5], 38.4%.

As to `CN1CCN(C(=O)C(C)(C)c2ccc(C(=O)Nc3cn4cc(-c5cc(C(C)(C)C)cc(C(C)(C)C)c5)ccc4n3)cc2)CC1` [T3-CLK-N], the viability at 10 µM with Colon cancer organoid [1] was determined as 63.2%; in the experiment with Colon cancer organoid [2], 28.2%; in the experiment on Colon cancer organoid [3], 53.2%; in the experiment on Colon cancer organoid [4], 81.4%; with Colon cancer organoid [5], 112%.

As to `COc1cccc(CNC(=O)c2nc3scc(CN(C)Cc4ccccc4)c3c(=O)[nH]2)c1` [T-26f], the viability at 10 µM in the experiment with Colon cancer organoid [1] is 67.3%; in the experiment with Colon cancer organoid [2] it was 45.7%; with Colon cancer organoid [3] it was 63.8%; in the experiment on Colon cancer organoid [4], 98.9%; in the experiment on Colon cancer organoid [5], 112%.

Consider `CC1=C(C#N)C(c2ccc3c(c2)c(NC(=O)c2ccccc2C)nn3C)C(C#N)=C(C)N1` [BAY-974], for which the viability at 10 µM in the experiment on Colon cancer organoid [1] stood at 57.9%; in the experiment on Colon cancer organoid [2], 40.1%; in the experiment on Colon cancer organoid [3] it was 48.3%; with Colon cancer organoid [4], 103%; in the experiment with Colon cancer organoid [5], 109%.

With `CC(C)(O)[C@H](F)CN1Cc2cc(NC(=O)c3cnn4cccnc34)c(N3CCOCC3)cc2C1=O`, the viability at 10 µM in the experiment with Colon cancer organoid [1] was 51.5%; in the experiment on Colon cancer organoid [2] it was 38.7%; in the experiment on Colon cancer organoid [3] it was 23.3%; with Colon cancer organoid [4], 85.8%; with Colon cancer organoid [5] it was 129%.

With `Cc1sc2c(c1C)C(c1ccc(Cl)cc1)=N[C@@H](CC(=O)NCCCCCCCCNC(=O)COc1cccc3c1C(=O)N(C1CCC(=O)NC1=O)C3=O)c1nnc(C)n1-2` (stereo not given in full), the viability at 10 µM in the experiment on Colon cancer organoid [1] was determined as 4.21%; in the experiment with Colon cancer organoid [2] it was 5.19%; in the experiment with Colon cancer organoid [3], 2.25%; in the experiment with Colon cancer organoid [4] it was 6.5%; in the experiment with Colon cancer organoid [5], 3.56%.

For `Nc1c(C(=O)NCc2ccc(C(=O)NCCCC3CCCCC3)cc2)cnn1-c1ccccc1` [SR-318], the viability at 1 µM in the experiment with Colon cancer organoid [1] was 77.6%; with Colon cancer organoid [2], 58.8%; in the experiment with Colon cancer organoid [3], 41.3%; with Colon cancer organoid [4], 166%; in the experiment with Colon cancer organoid [5], 85%.

Regarding `C=CC(=O)Nc1ccc2[nH]c(=O)n(C3CCN(Cc4ccc(-c5nc6cc[nH]c(=O)c6cc5-c5ccccc5)cc4)CC3)c2c1` [Borussertib], the viability at 10 µM with Colon cancer organoid [1] turned out to be 10.6%; in the experiment on Colon cancer organoid [2], 7.88%; with Colon cancer organoid [3], 14.3%; in the experiment with Colon cancer organoid [4], 9.17%; in the experiment with Colon cancer organoid [5] it was 28.5%.

In the case of `CCC(=O)N1CCOc2c(cc(-c3ccc(OC)c(OC)c3)cc2OCC2CCCN(C)C2)C1` (stereo not given), the viability at 10 µM in the experiment on Colon cancer organoid [1] turned out to be 96.1%; with Colon cancer organoid [2] it was 60.4%; with Colon cancer organoid [3] it was 74.7%; in the experiment on Colon cancer organoid [4] it was 119%; in the experiment on Colon cancer organoid [5], 102%.

In the case of `Cc1c(N2CCNCC2)nc2ccc(Br)cc2c1C(=O)NC[C@H](CCC(=O)O)c1ccccc1Cl` [BAY-403], the viability at 10 µM with Colon cancer organoid [1] stood at 87.2%; in the experiment on Colon cancer organoid [2], 48%; in the experiment with Colon cancer organoid [3] it was 29.6%; with Colon cancer organoid [4] it was 60.5%; in the experiment with Colon cancer organoid [5], 85.5%.
